Assay results as given in US20060236430A1, “Methods and compositions for producing male sterile plants” (priority 2003, published 2006).
“Also recorded” adds a separate entry of the source. Each block holds one molecule with its values, some of them ahead of it.

Experiments:
[1] = tested on: transgenic Nicotiana tabacum plants (line 7) expressing AtST2a; experiment: Normalization experiment: restoring normal anther development in male sterile transgenic tobacco expressing AtST2a; type: in vivo; conditions: for restoration of the male sterile phenotype by exogenous application: transgenic tobacco overexpressing AtST2a, concentration not given
Procedure: The apex of T2 plants of line 7 was soaked daily in a solution containing either: 0.05% Tween20 in water (control), 0.05% Tween20 in water containing 50 μM MeJA or 0.05% Tween20 in water containing 100 μM 12-OHJA. The treatments were started approximately 7 days before the appearance of the first flower buds and lasted a total of 14 days. A minimum of 5 plants for each treatment were analyzed in this study.
In order to restore the phenotype, the apex of transgenic plants were soaked daily for 2 minutes in a solution containing 100 μM 12-OHJA dissolved in aqueous 0.05% TWEEN20. The application was started approximately 7 days prior to the appearance of the first flower bud and was continued for 7 days after the first flower appeared.

[2] = tested on: A. thaliana opr3 mutant deficient in JA biosynthesis; experiment: Restoring the male sterile phenotype of the opr3 mutant by exogenous application to the inflorescence; type: in vivo, Arabidopsis thaliana; conditions: data not shown
[3] = target: T1, hydroxyjasmonic acid sulfotransferase encoded by the AtST2a gene (Arabidopsis thaliana, UniProt Q8L5A7); experiment: Substrate specificity and kinetics of the AtST2a hydroxyjasmonic acid sulfotransferase; type: biochemical; conditions: structurally related compounds
T1 sequence (Q8L5A7 1-359): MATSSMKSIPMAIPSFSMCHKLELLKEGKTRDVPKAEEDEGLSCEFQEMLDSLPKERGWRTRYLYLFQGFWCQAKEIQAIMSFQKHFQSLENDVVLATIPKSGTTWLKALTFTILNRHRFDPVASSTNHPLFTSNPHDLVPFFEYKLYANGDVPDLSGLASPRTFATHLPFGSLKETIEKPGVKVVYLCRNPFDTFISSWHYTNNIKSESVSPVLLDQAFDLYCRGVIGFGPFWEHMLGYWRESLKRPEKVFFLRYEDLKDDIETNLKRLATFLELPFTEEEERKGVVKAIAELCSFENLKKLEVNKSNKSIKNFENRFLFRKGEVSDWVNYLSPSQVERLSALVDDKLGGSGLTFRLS
Description: (§1) SEQ ID NO 1 (FIG. 6; GenBank®: accession number NM_120783) corresponds to the gene AtST2a in Arabidopsis thaliana. SEQ ID NO 3 (FIG. 7) is an amino acid sequence deduced from SEQ ID NO 1. This amino acid sequence is of public domain and can be retrieved from GenBank®, accession number NM_120783. The AtST2a gene from Arabidopsis thaliana encodes a sulfotransferase that sulfonates 12-OHJA and 11-OHJA with high specificity.

[4] = substrate: CC(O)C=CCC1C(=O)CCC1CC(=O)O; experiment: as above; type: biochemical, Arabidopsis thaliana; conditions: other: as substrate of the sulfotransferase; pH 7.5
Description: as §1

[5] = substrate: O=C(O)CC1CCC(=O)C1CC=CCCO; experiment: as above; type: biochemical, Arabidopsis thaliana; conditions: other: as substrate of the sulfotransferase; pH 7.5
Description: as §1

Molecule: O=C(O)CC1CCC(=O)C1CC=CCCO (stereo not drawn) [12-OHJA, 3-Oxo-2-(5-hydroxy-2-pentenyl)-cyclopentane-1-acetic acid]
restoration of normal anther development ([1]; 100 μM in aqueous 0.05% TWEEN20, apex of line 7 soaked daily for 2 minutes, 14 days): restoration of the mutant phenotype; also recorded: restored normal anther development
production of viable pollen ([1]; apex of transgenic plants treated for 14 days (FIG. 5)): production of viable pollen
restoration of the male sterile phenotype by exogenous application [1]: could be restored
restoration of the male sterile phenotype [2]: restore the male sterile phenotype

Molecule: CC/C=C\C[C@H]1C(=O)CC[C@@H]1CC(=O)O [JA, jasmonic acid]
restoration of the male sterile phenotype by exogenous application [1]: could be restored

acceptance as substrate by the enzyme [3]: did not accept
Molecule: CCCCC/C=C\C/C=C\C/C=C\C/C=C\CCCCO [arachidonyl alcohol]

acceptance as substrate by the enzyme [3]: did not accept
Molecule: CC/C=C/CC1C(O)CCC1CC(=O)O (stereo not drawn) [cucurbic acid]

B1: hydroxyjasmonic acid sulfotransferase encoded by the AtST2a gene (Arabidopsis thaliana) (protein)
chain: T1 sequence (Q8L5A7 1-359)
Km [4]: 60 µM
Km [5]: 11 µM
